Holding throughout (assay): inhibition of tumour cell growth, NCI panel, 48 h
Experiment [1] relates to A498 renal.
In experiment [2] the test system is A549 NSCLC.
Experiment [3] deals with COLO 205 colon.
The subject of experiment [4] is HOP-62 NSCLC.
Experiment [5] deals with HT29 colon.
Experiment [6] concerns LOX IMVI melanoma.
Experiment [7] has as its system MCF7 breast.
The test system of experiment [8] is MOLT-4 leukemia.
In experiment [9] the test system is NCI-H460 lung.
For experiment [10], the system named is OVCAR-4 ovarian.
Experiment [11] has as its system OVCAR-8 ovarian.
The subject of experiment [12] is RPMI-8226 leukemia.
The test system of experiment [13] is SF-539 CNS.
Experiment [14] has as its system SK-MEL-2 melanoma.
Experiment [15] concerns SK-MEL-28 melanoma.
Experiment [16] deals with SNB-19 CNS.
Experiment [17] relates to SNB-75 CNS.
The subject of experiment [18] is SW-620 colon.
Experiment [19] deals with UACC-257 melanoma.
Experiment [20] relates to CAKI-1 renal.

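Values below derive from 48-hour exposures of cells grown in 96-well plates, with endpoints linearly interpolated between the two concentrations bracketing the appropriate inhibition level. Definition used: TGI = concentration required for complete inhibition of growth.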

With `COc1cc(N=Nc2ccc(OC)c(S(=O)(=O)O)c2)c(C)cc1N=Nc1ccc(/C=C/c2ccc(N=[N+]([O-])c3ccc(/C=C/c4ccc(N=Nc5cc(C)c(N=Nc6ccc(OC)c(S(=O)(=O)O)c6)cc5OC)cc4S(=O)(=O)O)c(S(=O)(=O)O)c3)cc2S(=O)(=O)O)c(S(=O)(=O)O)c1`, the TGI in experiment [1], in [2], in [3], in experiment [4], in experiment [5] and in experiment [6] was above 100 µM in each case. Further, the TGI in [7], in [8], in experiment [9], in [10], in experiment [11] and in experiment [12] was above 100 µM in each case. Besides, the TGI in experiment [13], in experiment [14], in experiment [15], in experiment [16], in [17] and in experiment [18] was above 100 µM throughout. For the same compound, in [19], the TGI was above 100 µM.
Turning to `CCCn1cc2c3c(cccc31)C1C=C(C)CN(C)C1C2` (stereo not drawn), the TGI came to 37.8 µM in [1]; 70.5 µM in experiment [2]; 44.2 µM in [20]; 33.3 µM in experiment [3]; 67.2 µM in [4]; 42.7 µM in [5]. In addition, the TGI in experiment [6] worked out at 39.8 µM; in [7], 37.8 µM; in experiment [8], 40.2 µM; in experiment [9] it was 36.6 µM; in [10], 29.8 µM; in experiment [11] it was 66.5 µM. For the same compound, the TGI in experiment [12] turned out to be 25.1 µM; in [13] it was 59.5 µM; in experiment [14], 63.4 µM; in experiment [15] it was 49.9 µM; in experiment [16] it was 62.1 µM; in experiment [17], 39.3 µM. Moreover, the figures for the TGI in experiment [18] and in [19] were 62.4 µM and 29.6 µM, respectively.
`CCOC(=O)c1csc(NC(=O)CCN2CCCC2)n1`: the TGI in [2], in experiment [20], in [3], in [4], in experiment [5] and in experiment [6] was above 100 µM in each case. Besides, the TGI in experiment [7], in experiment [8], in [9], in [10], in experiment [11] and in experiment [12] was above 100 µM in each case. For the same compound, the TGI in experiment [13], in experiment [14], in experiment [15], in experiment [16], in experiment [17] and in experiment [18] was above 100 µM each time. In experiment [19], this compound displayed a TGI above 100 µM.
For `CCOC(=O)c1csc(NC(=O)CCN2CCN(C)CC2)n1`, the TGI in experiment [1], in experiment [2], in experiment [20], in experiment [3], in [4] and in experiment [5] was above 100 µM each time. The TGI in experiment [6], in experiment [7], in experiment [8], in [9], in experiment [10] and in experiment [11] was above 100 µM in each case. The TGI in [12], in experiment [13], in experiment [14], in [15], in [16] and in [17] was above 100 µM throughout. For the same compound, the TGI in experiment [18] and in experiment [19] was above 100 µM throughout.

The record behind these values is PubChem BioAssay (NCI).
